# Measured values: patent US20030187261A1, “Purine derivatives, process for their preparation and use thereof” (priority 2000, published 2003)
# Read-outs that look alike come from different tables or passages of the source.
# Legend:
# [1] = system: T-lymphoblastic leukemia cell line CEM; test: MTT cytotoxicity assay, CEM; assay type: cell-based, human; details: 72 hours (TCS50 in the method)
# Source text: (§1) One of the parameters used as the basis for colorimetric assays is the metabolic activity of viable cells. For example, a microtiter assay, which uses the tetrazolium salt MTT, is now widely used to quantitate cell proliferation and cytotoxicity. For instance, this assay is used in drug screening programs and in chemosensitivity testing. Because only metabolically active cells cleave tetrazolium salts, these assays detect viable cells exclusively. In the case of MTT assay, yellow soluble tetrazolium salt is reduced to coloured water-insoluble formazan salt. After it is solubilized, the formazan formed can easily and rapidly be quantified in a conventional ELISA plate reader at 570 nm (maximum absorbance). The quantity of reduced formazan corresponds to number of vital cells in the culture. Human T-lymphoblastic leukemia cell line CEM; promyelocytic HL-60 and monocytic U937 leukemias; breast carcinoma cell lines MCF-7, BT549, MDA-MB-231; glioblastoma U87MG cells; cervical carcinoma cells HELA; sarcoma cells U20S and Saos2; hepatocellular carcinoma HepG2; mouse immortalized bone marrow macrophages B2.4 and B10A.4; P388D1 and L1210 leukemia; B16 and B16F10 melanomas were used for routine screening of the compounds according to the invention. The cells were maintained in Nunc/Corning 80 cm^2 plastic tissue culture flasks and cultured in cell culture medium (DMEM with 5 g/l glucose, 2 mM glutamine, 100 U/ml penicillin, 100 μg/ml streptomycin, 10% fetal calf serum and sodium bicarbonate).
# (§2) The cell suspensions that were prepared and diluted according to the particular cell type and the, expected target cell density (2500-30000 cells per well based on cell growth characteristics) were added by pipette (80 μl) into 96-well microtiter plates. Inoculates were allowed a pre-incubation period of 24 hours at 37° C. and 5% CO2 for stabilisation. Four-fold dilutions of the intended test concentration were added at time zero in 20 μl aliquots to the microtiter plate wells. Usually, test compound was evaluated at six 4-fold dilutions. In routine testing, the highest well concentration was 266.7 μM, but it can be the matter of change dependent on the agent. All drug concentrations were examined in duplicates. Incubations of cells with the test compounds lasted for 72 hours at 37° C., in 5% CO2 atmosphere and 100% humidity. At the end of incubation period, the cells were assayed by using the MTT. Ten microliters of the MTT stock solution were pipetted into each well and incubated further for 1-4 hours. After this incubation period, formazan was solubilized by addition of 100 μl/well of 10% SDS in water (pH=5.5) followed by further incubation at 37° C. overnight. The optical density (OD) was measured at 540 nm with the Labsystem iEMS Reader MF (UK). The tumour cell survival (TCS) was calculated using the following equation: TCS=(ODdrug exposed well/mean ODcontrol wells)×100%. The TCS50 value, the drug concentration lethal to 50% of the tumour cells, was calculated from the obtained dose response curves.
# (§3) The cytoxicity of novel compounds was tested on panel of cell lines of different histogenetic and species origin (Table 7). Equal activities were found in all tumour cell lines tested. […] Importantly, this observation distinguishes the purine derivatives of the invention from flavopiridol and related compounds, as their biological activity is dependent on p53 status.
# B16 melanoma = test: MTT cytotoxicity assay, B16; assay type: cell-based, mouse; details: 72 hours (TCS50 in the method)
# Source text: as §1, §2, §3
# normal human lymphocytes = test: concanavalin A induced lymphocyte proliferation, [3H]-TdR incorporation; assay type: cell-based; details: 72 hours, read-out: ED50 (the source's name)
# Method: Human heparinized peripheral blood was obtained from healthy volunteers by cubital vein punction. The blood was diluted in PBS (1:3) and mononuclear cells were separated by centrifugation in Ficoll-Hypaque density gradient (Pharmacia, 1.077 g/ml) at 2200 rpm for 30 minutes. Following centrifugation, lymphocytes were washed in PBS and resuspended in cell culture medium (RMPI 1640, 2 mM glutamine, 100 U/ml penicillin, 100 μg/ml streptomycin, 10% fetal calf serum and sodium bicarbonate).
# The cells were diluted at target density of 1100000 cells/ml and were added by pipette (180 μl) into 96/well microtiter plates. Four-fold dilutions of the intended test concentration were added at time zero in 20 μl aliquots to the microtiter plate wells. Usually, test compound was evaluated at six 4-fold dilutions. In routine testing, the highest well concentration was 266.7 μM. All drug concentrations were examined in duplicates. All wells with exception of unstimulated controls were activated with 50 μl of concanavalin A (25 μg/ml). Incubations of cells with test compounds lasted for 72 hours at 37° C., in 5% CO2 atmosphere and 100% humidity. At the end of incubation period, the cells were assayed by using the [^3H]-TdR:
# Cell cultures were incubated with […] (20 μl of stock solution 500 μCi/ml) per well for 6 hours at 37° C. and 5% CO2. The automated cell harvester was used to lyse cells in water and adsorb the DNA onto glass-fiber filters in the format of microtiter plate. The DNA incorporated [^3H]-TdR was retained on the filter while unincorporated material passes through. The filters were dried at room temperature overnight, sealed into a sample bag with 10-12 ml of scintillant. The amount of [^3H]-TdR present in each filter (in cpm) was determined by scintillation counting in a Betaplate liquid scintillation counter. The effective dose of immunosuppressant (ED) was calculated using the following equation: ED=(cpmdrug exposed well/mean cpmcontrol wells)×100%. The EDs50 value, the drug concentration inhibiting proliferation of 50% of lymphocytes, was calculated from the obtained dose response curves.
# To evaluate immunosuppressive activity of substituted adenines, their ability to inhibit polyclonal mitogen induced proliferation of normal human lymphocytes was analyzed (Table 8). […] Effective immunosuppressive dose of new derivatives under in vitro conditions was close to 1-20 μM.
# CDC2 = molecular target: T1, CDC2 (Homo sapiens, UniProt P06493); test: p34cdc2 (CDC2) kinase inhibition assay, histone H1 substrate; assay type: biochemical
# T1 construct: made in house; host or cells: Sf9 insect cells, baculovirus co-infection
# IκB-α = IκB-α kinase-inhibitory activity; assay type: biochemical; details: Table 3
# Source text: Modification of 2,6,9-trisubstituted purines by a catechol-like substituent at R6 leads to an increase in cdk inhibitory activity of the tested compounds.
# [2] = system: PHA-stimulated lymphocytes (PBMC); test: cell number of PHA-stimulated lymphocytes (PBMC), flow cytometry; assay type: cell-based, human; details: 96 hours, in the presence of IL-2; for CC50: Homo sapiens, Lymphocyte, read-out: Lymphocytes IC50
# Method: Human peripheral blood mononuclear cells were isolated by density gradient (Ficoll-Hypaque) (LSM, ICN Biomedicals Inc.). PBMC were stimulated with 5 μg/ml phytohemaglutinin A (PHA) (Sigma) during 24-48 hours in IMDM supplemented with 10% FCS (IMDM/10% FCS) at 37° C. After washing off the PHA, PBMC were incubated with interleukin-2 (IL-2) (10 U/ml) (Genzyme).
# (§4) Cells were plated at 10000 per well in 200 μl IMDM medium and incubated with 0-50 μM of the compounds of the invention (Table 5), by addition of the drugs directly to the culture medium and incubated at 37° C. for 96 hours. Absolute cell number was determined by addition of a known concentration of Fluoresbrite microspheres (FITC) (Polysciences, Inc.). The absolute number of cells per well was calculated as: {(total number of beads added per well)/(number of beads measured)}×(number of measured cells in the gate of interest). All analyses were performed with a FACScan (BD), using CELLQuest software (Becton Dickinson).
# The novel compounds were tested for cytotoxicity on PHA-stimulated lymphocytes (PBMC), as one of the normal counterparts of the cell lines. Cells were grown for 96 hours in the presence of IL-2 and different concentrations of the novel compounds and cell number was counted on the flow cytometer.
# [3] = system: T-lymphocyte leukemia Molt3 cell line; test: cell growth of Molt3 cell line, flow cytometric cell count; assay type: cell-based, human; details: 96 hours of culture
# Method: Cell lines: Human leukemic cell lines were obtained from the American Type Culture Collection (ATCC, Rockville, Md., USA). They were cultured in Iscove's Modified Dulbecco's Medium (IMDM) supplemented with 10% heat inactivated fetal calf serum (FCS), 200 U/ml penicillin, 200 μg/ml streptomycin and 1 μg/ml amphotericin B. Cells were cultured in a 5% CO2-95% air fully humidified incubator. For effects on clonogenic output, 1000 cells/well were plated in duplicate in methylcellulose (0.9%), supplemented with 20% FCS and cultured for 14 days.
# as §4
# The response of the myeloid leukemia KG1 and T-lymphocyte leukemia Molt3 cell lines to the cytostatic effect of the novel compounds was determined using the above-mentioned standardized bead suspension that was used to determine the absolute cell number by flow cytometric (FCM) measurement. Cells were grown in the presence of increasing concentrations of the compounds of the invention.
# [4] = system: myeloid leukemia KG1 cell line; test: cell growth of KG1 cell line, flow cytometric cell count; details: read-out: KGI IC50
# Method: To determine reversibility of the effects of the new compounds, cells were plated at 10,000 per well and exposed to 0-50 μM of the composed, either continuously for 7 days (control) or only for 6 hours. In the latter case, cells were washed after 6 hours in phosphate-buffered-saline (PBS) (Life Technologies) and reseeded into drug-free medium for 7 days.
# [5] = Table 5, CDC2 activity in cell free system
# T1 sequence (P06493 whole entry, species assumed): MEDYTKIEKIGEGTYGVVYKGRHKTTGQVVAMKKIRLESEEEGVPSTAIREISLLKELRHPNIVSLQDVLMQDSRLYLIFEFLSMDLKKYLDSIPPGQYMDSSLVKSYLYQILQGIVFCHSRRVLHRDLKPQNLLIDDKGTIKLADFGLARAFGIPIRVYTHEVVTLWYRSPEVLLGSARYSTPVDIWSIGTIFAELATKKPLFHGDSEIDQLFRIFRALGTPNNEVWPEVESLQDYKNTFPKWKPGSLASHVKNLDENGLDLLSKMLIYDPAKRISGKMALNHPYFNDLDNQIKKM
# T1 sequence (P14635 whole entry partner, species assumed): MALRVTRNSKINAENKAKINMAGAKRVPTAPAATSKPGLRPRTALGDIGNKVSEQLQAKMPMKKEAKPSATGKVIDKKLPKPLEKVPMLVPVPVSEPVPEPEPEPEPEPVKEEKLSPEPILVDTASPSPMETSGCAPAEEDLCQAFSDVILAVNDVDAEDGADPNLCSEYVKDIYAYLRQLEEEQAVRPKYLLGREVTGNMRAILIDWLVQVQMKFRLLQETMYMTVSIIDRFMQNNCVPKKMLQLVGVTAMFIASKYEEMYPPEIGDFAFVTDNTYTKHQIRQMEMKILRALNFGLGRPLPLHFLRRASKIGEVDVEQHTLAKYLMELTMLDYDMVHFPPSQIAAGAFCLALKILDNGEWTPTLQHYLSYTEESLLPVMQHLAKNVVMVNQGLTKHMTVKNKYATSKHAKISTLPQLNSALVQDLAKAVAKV
SMILES,IC50 [1] [µM],IC50 (B16 melanoma) [µM],EC50 (normal human lymphocytes) [µM],other results
CC(C)n1cnc2c(NCc3ccc(O)c(O)c3)nc(NCCO)nc21,35,32,,
CC(C)n1cnc2c(N(C)CCc3ccc(O)c(O)c3)nc(NCCO)nc21,27,26,4,
CN(CCc1ccc(O)c(O)c1)c1nc(NCCO)nc2c1ncn2C,,,,IC50 (CDC2; Table 3): 10.2 µM; IC50 (IκB-α): 25.4 µM
CCCCCCNc1nc(NCc2ccc(O)c(O)c2)c2ncn(C(C)C)c2n1,22,21,,
CCCCCCNc1nc(N(C)CCc2ccc(O)c(O)c2)c2ncn(C(C)C)c2n1,33,32,15,IC50 (CDC2; Table 3): 2.6 µM
CC(C)n1cnc2c(NCc3ccc(O)c(O)c3)nc(NC[C@@H](C)O)nc21,35,41,,
CC(C)n1cnc2c(N(C)CCc3ccc(O)c(O)c3)nc(NC[C@@H](C)O)nc21,13,14,7,
CC(C)n1cnc2c(NC(CO)c3ccccc3)nc(NC[C@@H](C)O)nc21 (some centres unmarked),70,74.6,23,
CC(O)CNc1nc(NC(CO)c2ccccc2)c2ncn(C(C)C)c2n1 (centres unmarked),,,,IC50 (CDC2; Table 3): 0.6 µM
CC[C@@H](CO)Nc1nc(NCc2ccc(O)c(O)c2)c2ncn(C(C)C)c2n1,51,53,,
CC[C@@H](CO)Nc1nc(N(C)CCc2ccc(O)c(O)c2)c2ncn(C(C)C)c2n1,36,34,1.8,
CC[C@@H](CO)Nc1nc(NC(CO)c2ccccc2)c2ncn(C(C)C)c2n1 (some centres unmarked),20,24,14,
CC(C)n1cnc2c(NCc3ccc(O)c(O)c3)nc(NC[C@H](C)O)nc21,12,10,,
CC(C)n1cnc2c(N(C)CCc3ccc(O)c(O)c3)nc(NC[C@H](C)O)nc21,43,40,8,
CC(C)n1cnc2c(NC(CO)c3ccccc3)nc(NC[C@H](C)O)nc21 (some centres unmarked),8,5.6,27,
CC(C)n1cnc2c(NC(CO)c3ccccc3)nc(NCCO)nc21 (racemic),18,19,38,IC50 (CDC2; Table 3): 1.4 µM
"CC(C)n1cnc2c(NC(CO)c3ccccc3)nc(CCCCCC#N)nc21 (racemic) [P24, 2-(5-cyanopentyl)-6-[(R,S)-(1-phenyl-2-hydroxyethyl)amino]-9-isopropylpurine]",,,,IC50 (CDC2; [5]): 6.3 µM; IC50 [2]: 33 ± 4.4 µM; IC50 [3]: 42.5 ± 6 µM; IC50 ([4]; 96 hours of culture): 42 ± 4.8 µM
CCCCCCNc1nc(NC(C)c2ccc(O)c(O)c2)c2ncn(C(C)C)c2n1 (centres unmarked) [P17],,,,IC50 (CDC2; [5]): 1 µM; IC50 [2]: 18 ± 2.8 µM; IC50 [3]: 24 ± 6.2 µM; IC50 ([4]; 96 hours of culture): 35.3 ± 5.7 µM
CC(Nc1nc(NCCCO)nc2c1ncn2C(C)C)c1ccc(O)c(O)c1 (centres unmarked) [P18],,,,IC50 (CDC2; [5]): 2.6 µM; IC50 [2]: 14.9 ± 2.9 µM; IC50 [3]: 23 ± 2.8 µM; IC50 ([4]; 96 hours of culture): 18.7 ± 0.3 µM
CC[C@H](CO)Nc1nc(NCc2ccc(O)cc2)c2ncn(C(C)C)c2n1 [P19],,,,IC50 [2]: 6 µM; IC50 [3]: 15 ± 2 µM; IC50 ([4]; 96 hours of culture): 11 ± 1.3 µM
CC(Nc1nc(NCCCO)nc2c1ncn2C(C)C)c1ccc(O)c(O)c1 (centres unmarked) [P20],,,,IC50 [2]: 35 ± 7.3 µM
"Cn1cnc2c(NC(CO)c3ccccc3)nc(N3CCOCC3)nc21 (centres unmarked) [P21, 2-(morpholino)-6-(1-phenyl-2-hydroxyethylamino)-9-methylpurine]",,,,"IC50 (CDC2; [5]): 6.5 µM; CC50 [2]: 40 ± 7.7 µM; IC50 ([3]; Homo sapiens, MOLT-3): 50 ± 1.3 µM; IC50 ([4]; Homo sapiens, KG-1, 96 h): 48 ± 1.5 µM"
"CC(C)n1cnc2c(NC(CO)c3ccccc3)nc(SCCO)nc21 (centres unmarked) [P22, 2-(2-hydroxyethylthio)-6-(1-phenyl-2-hydroxyethylamino)-9-isopropylpurine]",,,,"IC50 (CDC2; [5]): 3.8 µM; CC50 [2]: 11 ± 1.5 µM; IC50 ([3]; Homo sapiens, MOLT-3): 17 ± 1.7 µM; IC50 ([4]; Homo sapiens, KG-1, 96 h): 13 ± 1.4 µM"
"CC(C)n1cnc2c(SCc3ccccc3)nc(NCCCO)nc21 [P25, 2-(3-hydroxypropylamino)-6-benzylthio-9-isopropylpurine]",,,,"IC50 (CDC2; [5]): > 100 µM; CC50 [2]: 18 ± 1.6 µM; IC50 ([3]; Homo sapiens, MOLT-3): 19 ± 2 µM; IC50 ([4]; Homo sapiens, KG-1, 96 h): 42 ± 5 µM"
"CC(C)n1cnc2c(NC(CO)c3ccccc3)nc(NCC(O)CO)nc21 [P26, 2-(2,3-dihydroxypropylamino)-6-[(R,S)-(1-phenyl-2-hydroxyethyl)amino]-9-isopropylpurine]",,,,"IC50 (CDC2; [5]): > 100 µM; CC50 [2]: 20 ± 1 µM; IC50 ([3]; Homo sapiens, MOLT-3): 23.7 ± 3.4 µM; IC50 ([4]; Homo sapiens, KG-1, 96 h): 20 ± 1 µM"
